Reference: ChEMBL document CHEMBL4507291 (2021)

How the values were obtained:
[1] = test system: Tyrosine-protein kinase ABL1 (Homo sapiens), P00519 [M351T]
[2] = target: Activin receptor type-1-like (Homo sapiens) (UniProt P37023)
[3] = target: Bone morphogenetic protein receptor type-1B (Homo sapiens) (UniProt O00238)
[4] = target: Calcium/calmodulin-dependent protein kinase type II subunit beta (Homo sapiens) (UniProt Q13554)
[5] = target: Cyclin-dependent kinase 5 (Homo sapiens) (UniProt Q00535)
[6] = target: T1, Serine/threonine-protein kinase DCLK2 (Homo sapiens) (UniProt Q8N568)
T1 sequence (whole entry): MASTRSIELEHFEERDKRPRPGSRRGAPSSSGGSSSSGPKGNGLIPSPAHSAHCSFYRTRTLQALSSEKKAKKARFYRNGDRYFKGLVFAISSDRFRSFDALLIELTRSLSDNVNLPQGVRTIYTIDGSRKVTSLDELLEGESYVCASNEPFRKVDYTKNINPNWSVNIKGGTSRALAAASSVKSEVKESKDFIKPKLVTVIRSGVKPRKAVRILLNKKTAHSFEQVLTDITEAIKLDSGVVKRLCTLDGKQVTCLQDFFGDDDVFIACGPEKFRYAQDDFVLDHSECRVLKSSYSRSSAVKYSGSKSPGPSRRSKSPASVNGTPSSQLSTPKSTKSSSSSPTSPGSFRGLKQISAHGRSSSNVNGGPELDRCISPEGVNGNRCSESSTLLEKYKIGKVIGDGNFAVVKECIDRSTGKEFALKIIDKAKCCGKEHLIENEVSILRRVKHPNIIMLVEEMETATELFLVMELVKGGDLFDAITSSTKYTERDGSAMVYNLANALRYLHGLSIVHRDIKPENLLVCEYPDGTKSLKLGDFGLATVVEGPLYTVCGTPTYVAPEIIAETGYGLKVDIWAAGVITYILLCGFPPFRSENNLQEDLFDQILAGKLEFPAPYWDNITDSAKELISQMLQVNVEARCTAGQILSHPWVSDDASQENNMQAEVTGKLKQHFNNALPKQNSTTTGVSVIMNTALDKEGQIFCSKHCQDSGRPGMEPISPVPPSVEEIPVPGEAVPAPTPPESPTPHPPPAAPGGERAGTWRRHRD

[7] = target: Receptor tyrosine-protein kinase erbB-3 (Homo sapiens) (UniProt P21860)
[8] = target: Fibroblast growth factor receptor 1 (Homo sapiens) (UniProt P11362)
[9] = test system: Receptor-type tyrosine-protein kinase FLT3 (Homo sapiens), P36888 [UNDEFINED MUTATION]
[10] = target: Insulin receptor (Homo sapiens) (UniProt P06213)
[11] = target: Interleukin-1 receptor-associated kinase 1 (Homo sapiens) (UniProt P51617)
[12] = test system: Mast/stem cell growth factor receptor Kit (Homo sapiens), P10721 [V559D,V654A]
[13] = target: Mitogen-activated protein kinase kinase kinase 13 (Homo sapiens) (UniProt O43283)
[14] = target: Mitogen-activated protein kinase kinase kinase 15 (Homo sapiens) (UniProt Q6ZN16)
[15] = target: Myosin light chain kinase family member 4 (Homo sapiens) (UniProt Q86YV6)
[16] = target: Myosin-IIIa (Homo sapiens) (UniProt Q8NEV4)
[17] = target: Serine/threonine-protein kinase PAK 6 (Homo sapiens) (UniProt Q9NQU5)
[18] = target: Serine/threonine-protein kinase pim-3 (Homo sapiens) (UniProt Q86V86)
[19] = target: Serine/threonine-protein kinase PknB (Mycobacterium tuberculosis) (UniProt P9WI81)
[20] = target: T2, Protein kinase C iota type (Homo sapiens) (UniProt P41743)
T2 sequence (whole entry): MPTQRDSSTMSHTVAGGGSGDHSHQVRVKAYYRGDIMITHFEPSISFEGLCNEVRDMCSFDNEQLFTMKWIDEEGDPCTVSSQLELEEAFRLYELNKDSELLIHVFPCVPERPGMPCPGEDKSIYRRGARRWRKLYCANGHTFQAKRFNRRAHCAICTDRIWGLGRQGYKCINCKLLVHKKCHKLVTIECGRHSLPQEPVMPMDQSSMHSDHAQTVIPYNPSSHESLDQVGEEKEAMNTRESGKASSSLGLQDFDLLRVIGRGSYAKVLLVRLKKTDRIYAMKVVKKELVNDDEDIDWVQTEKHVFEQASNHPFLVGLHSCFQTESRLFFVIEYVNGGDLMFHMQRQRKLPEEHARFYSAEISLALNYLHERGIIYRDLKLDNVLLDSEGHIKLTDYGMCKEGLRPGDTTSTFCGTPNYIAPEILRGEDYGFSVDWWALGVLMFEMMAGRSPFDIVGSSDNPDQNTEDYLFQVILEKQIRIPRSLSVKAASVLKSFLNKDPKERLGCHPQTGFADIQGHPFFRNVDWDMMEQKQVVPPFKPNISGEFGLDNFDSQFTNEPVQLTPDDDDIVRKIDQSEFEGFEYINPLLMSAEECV

[21] = target: Ribosomal protein S6 kinase alpha-2 (Homo sapiens) (UniProt Q15349)
[22] = target: Ribosomal protein S6 kinase alpha-2 (Homo sapiens) (UniProt Q15349); remark: listed apart in the source
[23] = target: Serine/threonine-protein kinase ULK2 (Homo sapiens) (UniProt Q8IYT8)
[24] = target: Serine/threonine-protein kinase VRK2 (Homo sapiens) (UniProt Q86Y07)
[25] = target: Serine/threonine-protein kinase WNK2 (Homo sapiens) (UniProt Q9Y3S1)
[26] = target: Sodium-dependent noradrenaline transporter (Homo sapiens, UniProt P23975); details: Compound concentration 10.0 uM
[27] = Compound concentration 100.0 nM
[28] = Compound concentration 1000.0 nM

Chain of Ribosomal protein S6 kinase alpha-2 (Homo sapiens) (Q15349 whole entry): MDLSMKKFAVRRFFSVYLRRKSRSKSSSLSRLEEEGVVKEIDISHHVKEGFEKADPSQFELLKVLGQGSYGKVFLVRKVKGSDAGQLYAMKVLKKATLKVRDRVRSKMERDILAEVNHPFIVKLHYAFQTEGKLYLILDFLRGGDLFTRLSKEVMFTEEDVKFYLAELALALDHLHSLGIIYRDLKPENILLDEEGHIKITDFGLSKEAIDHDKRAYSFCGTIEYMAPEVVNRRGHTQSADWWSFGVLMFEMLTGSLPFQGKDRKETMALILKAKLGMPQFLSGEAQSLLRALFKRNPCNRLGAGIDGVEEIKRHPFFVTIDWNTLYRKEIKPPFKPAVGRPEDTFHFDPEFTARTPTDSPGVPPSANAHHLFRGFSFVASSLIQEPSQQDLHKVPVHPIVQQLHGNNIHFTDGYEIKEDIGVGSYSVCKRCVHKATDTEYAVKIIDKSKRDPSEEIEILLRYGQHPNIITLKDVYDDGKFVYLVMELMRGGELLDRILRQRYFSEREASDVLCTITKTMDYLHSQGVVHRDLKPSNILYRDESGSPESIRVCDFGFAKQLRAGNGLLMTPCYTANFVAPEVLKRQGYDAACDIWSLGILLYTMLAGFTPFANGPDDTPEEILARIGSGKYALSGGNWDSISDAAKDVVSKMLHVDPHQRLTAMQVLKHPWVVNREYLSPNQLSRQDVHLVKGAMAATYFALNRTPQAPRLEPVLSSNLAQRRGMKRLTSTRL
Chain of Interleukin-1 receptor-associated kinase 1 (Homo sapiens) (P51617 whole entry, looked up): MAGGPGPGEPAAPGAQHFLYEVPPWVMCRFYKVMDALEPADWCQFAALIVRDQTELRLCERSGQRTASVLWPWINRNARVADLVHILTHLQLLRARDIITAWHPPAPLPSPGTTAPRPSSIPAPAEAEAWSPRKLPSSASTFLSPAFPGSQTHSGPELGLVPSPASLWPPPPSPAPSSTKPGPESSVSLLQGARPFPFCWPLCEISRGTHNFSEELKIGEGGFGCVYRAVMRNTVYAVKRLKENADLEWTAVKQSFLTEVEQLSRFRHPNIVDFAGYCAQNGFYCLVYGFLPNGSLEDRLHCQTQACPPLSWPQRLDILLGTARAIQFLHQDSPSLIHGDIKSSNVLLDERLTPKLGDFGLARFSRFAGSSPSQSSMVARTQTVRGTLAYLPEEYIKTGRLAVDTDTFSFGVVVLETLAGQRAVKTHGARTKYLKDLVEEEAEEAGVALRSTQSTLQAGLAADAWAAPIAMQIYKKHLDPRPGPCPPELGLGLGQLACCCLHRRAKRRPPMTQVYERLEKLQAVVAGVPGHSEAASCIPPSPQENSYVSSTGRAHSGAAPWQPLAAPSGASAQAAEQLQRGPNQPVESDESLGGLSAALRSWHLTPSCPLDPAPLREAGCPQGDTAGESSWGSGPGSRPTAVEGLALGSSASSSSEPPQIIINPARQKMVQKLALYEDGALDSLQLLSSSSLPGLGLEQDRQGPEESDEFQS
Chain of Fibroblast growth factor receptor 1 (Homo sapiens) (P11362 22-822 limits assumed): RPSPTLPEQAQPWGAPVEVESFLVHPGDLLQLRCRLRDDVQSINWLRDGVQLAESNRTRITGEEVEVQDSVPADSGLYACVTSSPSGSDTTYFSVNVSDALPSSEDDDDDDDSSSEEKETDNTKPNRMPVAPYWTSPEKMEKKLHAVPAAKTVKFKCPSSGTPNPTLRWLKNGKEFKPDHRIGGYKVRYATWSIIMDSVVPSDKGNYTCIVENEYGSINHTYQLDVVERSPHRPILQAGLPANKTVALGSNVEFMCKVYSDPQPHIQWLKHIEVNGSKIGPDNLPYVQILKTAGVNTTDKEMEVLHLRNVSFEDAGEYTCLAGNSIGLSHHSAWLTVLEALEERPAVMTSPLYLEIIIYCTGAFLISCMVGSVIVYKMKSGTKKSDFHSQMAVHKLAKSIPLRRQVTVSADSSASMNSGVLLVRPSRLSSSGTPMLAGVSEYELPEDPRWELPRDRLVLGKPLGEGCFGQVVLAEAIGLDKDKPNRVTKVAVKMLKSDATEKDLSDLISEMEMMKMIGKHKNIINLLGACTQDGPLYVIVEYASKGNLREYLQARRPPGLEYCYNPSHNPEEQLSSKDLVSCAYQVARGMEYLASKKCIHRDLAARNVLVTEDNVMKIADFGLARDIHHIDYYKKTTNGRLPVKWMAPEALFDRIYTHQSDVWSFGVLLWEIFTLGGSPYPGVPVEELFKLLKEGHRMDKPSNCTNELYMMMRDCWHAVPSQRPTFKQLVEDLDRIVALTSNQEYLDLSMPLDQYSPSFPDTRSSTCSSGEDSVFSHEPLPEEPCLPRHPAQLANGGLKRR
Chain of Insulin receptor (Homo sapiens) (P06213 28-758 limits assumed): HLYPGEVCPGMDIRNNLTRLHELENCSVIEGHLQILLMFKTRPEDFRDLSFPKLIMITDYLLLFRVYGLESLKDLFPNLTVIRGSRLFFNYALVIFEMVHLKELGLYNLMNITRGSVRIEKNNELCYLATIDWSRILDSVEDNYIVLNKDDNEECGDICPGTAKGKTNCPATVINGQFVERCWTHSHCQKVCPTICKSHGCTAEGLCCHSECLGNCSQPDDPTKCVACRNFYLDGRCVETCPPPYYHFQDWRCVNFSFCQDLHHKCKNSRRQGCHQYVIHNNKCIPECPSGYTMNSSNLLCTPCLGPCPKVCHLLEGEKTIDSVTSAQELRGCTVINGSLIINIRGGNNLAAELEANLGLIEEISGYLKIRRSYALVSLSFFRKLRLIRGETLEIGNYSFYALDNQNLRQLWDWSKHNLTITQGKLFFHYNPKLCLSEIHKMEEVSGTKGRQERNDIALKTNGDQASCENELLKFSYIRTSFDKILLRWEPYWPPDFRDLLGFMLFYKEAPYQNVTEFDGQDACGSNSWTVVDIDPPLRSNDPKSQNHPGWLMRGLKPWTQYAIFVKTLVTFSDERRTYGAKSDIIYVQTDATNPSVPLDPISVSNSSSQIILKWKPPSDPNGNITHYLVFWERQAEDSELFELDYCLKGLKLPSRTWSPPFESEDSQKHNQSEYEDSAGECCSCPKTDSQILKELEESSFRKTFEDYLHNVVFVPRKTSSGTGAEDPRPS
Chain of Insulin receptor (Homo sapiens) (P06213 763-1382 limits assumed): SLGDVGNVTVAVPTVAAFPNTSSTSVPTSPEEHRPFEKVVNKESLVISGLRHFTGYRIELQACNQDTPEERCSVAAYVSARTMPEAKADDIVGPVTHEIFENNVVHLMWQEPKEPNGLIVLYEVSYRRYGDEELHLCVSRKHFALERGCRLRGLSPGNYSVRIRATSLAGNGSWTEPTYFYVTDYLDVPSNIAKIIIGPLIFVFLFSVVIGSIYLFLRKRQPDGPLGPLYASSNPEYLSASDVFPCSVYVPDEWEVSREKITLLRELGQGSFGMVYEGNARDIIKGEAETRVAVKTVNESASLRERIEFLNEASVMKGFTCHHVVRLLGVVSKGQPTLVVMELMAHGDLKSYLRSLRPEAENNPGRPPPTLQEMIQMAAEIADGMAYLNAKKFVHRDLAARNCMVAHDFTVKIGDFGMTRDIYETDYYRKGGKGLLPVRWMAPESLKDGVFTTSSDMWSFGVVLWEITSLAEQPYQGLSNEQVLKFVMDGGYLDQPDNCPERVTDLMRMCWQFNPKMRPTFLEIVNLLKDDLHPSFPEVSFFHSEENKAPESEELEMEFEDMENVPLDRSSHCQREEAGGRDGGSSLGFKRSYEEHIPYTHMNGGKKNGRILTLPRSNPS
Chain of Receptor-type tyrosine-protein kinase FLT3 (Homo sapiens), P36888 [UNDEFINED MUTATION] (P36888 whole entry, looked up, stated change not applied): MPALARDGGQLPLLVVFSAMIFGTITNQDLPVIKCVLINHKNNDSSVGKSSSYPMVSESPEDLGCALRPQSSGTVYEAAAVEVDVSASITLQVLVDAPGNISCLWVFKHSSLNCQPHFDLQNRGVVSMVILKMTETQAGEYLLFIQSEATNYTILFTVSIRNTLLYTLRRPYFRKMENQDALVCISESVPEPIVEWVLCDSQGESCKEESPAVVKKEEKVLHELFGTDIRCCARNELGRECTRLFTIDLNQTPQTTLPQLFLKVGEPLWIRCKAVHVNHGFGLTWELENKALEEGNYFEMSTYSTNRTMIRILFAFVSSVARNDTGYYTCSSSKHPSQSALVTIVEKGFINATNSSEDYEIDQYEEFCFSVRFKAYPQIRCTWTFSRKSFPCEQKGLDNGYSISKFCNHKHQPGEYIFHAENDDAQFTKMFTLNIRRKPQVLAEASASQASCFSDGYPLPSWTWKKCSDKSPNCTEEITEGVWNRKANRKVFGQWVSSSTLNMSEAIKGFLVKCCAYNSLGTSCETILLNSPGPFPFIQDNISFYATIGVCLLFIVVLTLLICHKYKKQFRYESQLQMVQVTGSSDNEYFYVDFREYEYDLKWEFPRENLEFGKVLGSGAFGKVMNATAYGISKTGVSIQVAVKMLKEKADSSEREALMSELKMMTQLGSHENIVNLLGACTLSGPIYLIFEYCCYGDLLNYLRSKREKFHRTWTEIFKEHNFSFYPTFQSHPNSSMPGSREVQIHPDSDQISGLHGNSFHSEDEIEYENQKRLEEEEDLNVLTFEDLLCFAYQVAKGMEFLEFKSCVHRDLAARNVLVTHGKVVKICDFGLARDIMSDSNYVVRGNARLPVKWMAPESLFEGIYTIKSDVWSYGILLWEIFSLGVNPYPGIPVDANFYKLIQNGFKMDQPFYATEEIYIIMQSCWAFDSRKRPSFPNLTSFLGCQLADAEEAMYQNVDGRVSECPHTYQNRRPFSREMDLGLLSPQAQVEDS

C[C@@H]1CN(c2cc(-c3n[nH]c4ccc(OC5(C)CC5)cc34)ncn2)C[C@H](C)O1 [MLi-2]
inactive: residual activity [1, 27] 95% | residual activity [2, 27] 94% | residual activity [3, 27] 81% | residual activity [4, 27] 100% | residual activity [5, 27] 100% | residual activity [6, 27] 89% | residual activity [7, 27] 100% | residual activity [8, 27] 100% | residual activity [9, 27] 100% | residual activity [10, 27] 100% | residual activity [11, 27] 79% | residual activity [12, 27] 100% | residual activity [14, 27] 67% | residual activity [15, 27] 100% | residual activity [16, 27] 100% | residual activity [17, 27] 100% | residual activity [18, 27] 100% | residual activity [19, 27] 95% | residual activity [20, 27] 80% | residual activity [21, 27] 92% | residual activity [22, 27] 100% | residual activity [23, 27] 69% | residual activity [24, 27] 65% | residual activity [25, 27] 84% | inhibition [26] 7.45%
active: residual activity [13, 27] 0%

C[C@@H]1CN(c2cc(-c3nn(C)c4ccc(OC5(C)CC5)cc34)ncn2)C[C@H](C)O1 [MLi-2-NC]
inactive: residual activity [1, 28] 91% | residual activity [2, 28] 63% | residual activity [3, 28] 77% | residual activity [4, 28] 96% | residual activity [5, 28] 100% | residual activity [6, 28] 100% | residual activity [7, 28] 57% | residual activity [8, 28] 100% | residual activity [9, 28] 91% | residual activity [10, 28] 100% | residual activity [11, 28] 67% | residual activity [12, 28] 100% | residual activity [13, 28] 91% | residual activity [14, 28] 80% | residual activity [15, 28] 100% | residual activity [16, 28] 100% | residual activity [17, 28] 100% | residual activity [18, 28] 92% | residual activity [19, 28] 100% | residual activity [20, 28] 100% | residual activity [21, 28] 88% | residual activity [22, 28] 100% | residual activity [23, 28] 59% | residual activity [24, 28] 73% | residual activity [25, 28] 63% | inhibition [26] 30.6%
